PubChem BioAssay AID1259407 (Chemical Carcinogenesis Research Information System (CCRIS), 2018)
The source made the active and inactive calls. No rule for the calls is given here.

Test system: CCRIS mutagenicity, Ames/micronucleus/aberration tests
Experiment: CCRIS mutagenicity studies
[1] = Test System: AMES SALMONELLA TYPHIMURIUM, Strain/Indicator: TA98, Metabolic Activation: NONE, Method: STANDARD PLATE
[2] = Test System: AMES SALMONELLA TYPHIMURIUM, Strain/Indicator: TA100, Metabolic Activation: NONE, Method: STANDARD PLATE

For `ONc1cccc(-c2ccccc2)c1`, the mutagenic call [1] was “inactive; negative” and the mutagenic call [2] was “inactive; negative”.

In the case of `Clc1cc(Cl)c(Cl)c(Cl)c1`, the mutagenic call (End Point: IN VITRO CHROMOSOMAL ABERRATIONS, Test System: CHO-LB CELLS, Metabolic Activation: NONE) is reported as “inactive; negative”, the mutagenic call (End Point: IN VITRO CHROMOSOMAL ABERRATIONS, Test System: CHO-LB CELLS, Metabolic Activation: RAT, LIVER, S-9, AROCLOR 1254) is reported as “inactive; negative” and the mutagenic call (Test System: AMES SALMONELLA TYPHIMURIUM, Strain/Indicator: TA98, Metabolic Activation: HAMSTER, LIVER, S-9, AROCLOR 1254, Method: PREINCUBATION) is reported as “inactive; negative”. The mutagenic call (Test System: AMES SALMONELLA TYPHIMURIUM, Strain/Indicator: TA98, Metabolic Activation: NONE, Method: PREINCUBATION) was “inactive; negative”, the mutagenic call (Test System: AMES SALMONELLA TYPHIMURIUM, Strain/Indicator: TA98, Metabolic Activation: RAT, LIVER, S-9, AROCLOR 1254, Method: PREINCUBATION) was “inactive; negative” and the mutagenic call (Test System: AMES SALMONELLA TYPHIMURIUM, Strain/Indicator: TA100, Metabolic Activation: HAMSTER, LIVER, S-9, AROCLOR 1254, Method: PREINCUBATION) was “inactive; negative”. For the same compound, the mutagenic call (Test System: AMES SALMONELLA TYPHIMURIUM, Strain/Indicator: TA100, Metabolic Activation: NONE, Method: PREINCUBATION) was “inactive; negative”, the mutagenic call (Test System: AMES SALMONELLA TYPHIMURIUM, Strain/Indicator: TA100, Metabolic Activation: RAT, LIVER, S-9, AROCLOR 1254, Method: PREINCUBATION) was “inactive; negative” and the mutagenic call (Test System: AMES SALMONELLA TYPHIMURIUM, Strain/Indicator: TA1535, Metabolic Activation: HAMSTER, LIVER, S-9, AROCLOR 1254, Method: PREINCUBATION) was “inactive; negative”. The mutagenic call (Test System: AMES SALMONELLA TYPHIMURIUM, Strain/Indicator: TA1535, Metabolic Activation: NONE, Method: PREINCUBATION) was “inactive; negative”, the mutagenic call (Test System: AMES SALMONELLA TYPHIMURIUM, Strain/Indicator: TA1535, Metabolic Activation: RAT, LIVER, S-9, AROCLOR 1254, Method: PREINCUBATION) was “inactive; negative” and the mutagenic call (Test System: AMES SALMONELLA TYPHIMURIUM, Strain/Indicator: TA1537, Metabolic Activation: HAMSTER, LIVER, S-9, AROCLOR 1254, Method: PREINCUBATION) was “inactive; negative”. For the same compound, the mutagenic call (Test System: AMES SALMONELLA TYPHIMURIUM, Strain/Indicator: TA1537, Metabolic Activation: NONE, Method: PREINCUBATION) was “inactive; negative” and the mutagenic call (Test System: AMES SALMONELLA TYPHIMURIUM, Strain/Indicator: TA1537, Metabolic Activation: RAT, LIVER, S-9, AROCLOR 1254, Method: PREINCUBATION) was “inactive; negative”.

`CC(=O)Nc1ccc2c3c(cccc13)-c1ccc(O)cc1-2` was tested, and the mutagenic call [1] was “active; positive” and the mutagenic call (Test System: AMES SALMONELLA TYPHIMURIUM, Strain/Indicator: TA98, Metabolic Activation: RAT, LIVER, S-9, AROCLOR 1254, Method: STANDARD PLATE) was “active; positive”.

For `[N-]=[N+]=NC[C@H]1O[C@H](O)[C@@H](O)[C@@H](O)[C@@H]1O`, the mutagenic call [1] was “inactive; negative” and the mutagenic call [2] was “active; positive”.
